{
  "source": "patent US9682969B2",
  "about": "“Phthalazinone compounds and methods for the treatment of cystic fibrosis” (FLATLEY DISCOVERY LAB, LLC, priority 2013, dated 2017)",
  "target": "human F508del CFTR (Homo sapiens (Human), UniProt P13569, DEL508-508)",
  "sequence (P13569 other isoform, or with tags, fused parts or gaps del F508-F508)": "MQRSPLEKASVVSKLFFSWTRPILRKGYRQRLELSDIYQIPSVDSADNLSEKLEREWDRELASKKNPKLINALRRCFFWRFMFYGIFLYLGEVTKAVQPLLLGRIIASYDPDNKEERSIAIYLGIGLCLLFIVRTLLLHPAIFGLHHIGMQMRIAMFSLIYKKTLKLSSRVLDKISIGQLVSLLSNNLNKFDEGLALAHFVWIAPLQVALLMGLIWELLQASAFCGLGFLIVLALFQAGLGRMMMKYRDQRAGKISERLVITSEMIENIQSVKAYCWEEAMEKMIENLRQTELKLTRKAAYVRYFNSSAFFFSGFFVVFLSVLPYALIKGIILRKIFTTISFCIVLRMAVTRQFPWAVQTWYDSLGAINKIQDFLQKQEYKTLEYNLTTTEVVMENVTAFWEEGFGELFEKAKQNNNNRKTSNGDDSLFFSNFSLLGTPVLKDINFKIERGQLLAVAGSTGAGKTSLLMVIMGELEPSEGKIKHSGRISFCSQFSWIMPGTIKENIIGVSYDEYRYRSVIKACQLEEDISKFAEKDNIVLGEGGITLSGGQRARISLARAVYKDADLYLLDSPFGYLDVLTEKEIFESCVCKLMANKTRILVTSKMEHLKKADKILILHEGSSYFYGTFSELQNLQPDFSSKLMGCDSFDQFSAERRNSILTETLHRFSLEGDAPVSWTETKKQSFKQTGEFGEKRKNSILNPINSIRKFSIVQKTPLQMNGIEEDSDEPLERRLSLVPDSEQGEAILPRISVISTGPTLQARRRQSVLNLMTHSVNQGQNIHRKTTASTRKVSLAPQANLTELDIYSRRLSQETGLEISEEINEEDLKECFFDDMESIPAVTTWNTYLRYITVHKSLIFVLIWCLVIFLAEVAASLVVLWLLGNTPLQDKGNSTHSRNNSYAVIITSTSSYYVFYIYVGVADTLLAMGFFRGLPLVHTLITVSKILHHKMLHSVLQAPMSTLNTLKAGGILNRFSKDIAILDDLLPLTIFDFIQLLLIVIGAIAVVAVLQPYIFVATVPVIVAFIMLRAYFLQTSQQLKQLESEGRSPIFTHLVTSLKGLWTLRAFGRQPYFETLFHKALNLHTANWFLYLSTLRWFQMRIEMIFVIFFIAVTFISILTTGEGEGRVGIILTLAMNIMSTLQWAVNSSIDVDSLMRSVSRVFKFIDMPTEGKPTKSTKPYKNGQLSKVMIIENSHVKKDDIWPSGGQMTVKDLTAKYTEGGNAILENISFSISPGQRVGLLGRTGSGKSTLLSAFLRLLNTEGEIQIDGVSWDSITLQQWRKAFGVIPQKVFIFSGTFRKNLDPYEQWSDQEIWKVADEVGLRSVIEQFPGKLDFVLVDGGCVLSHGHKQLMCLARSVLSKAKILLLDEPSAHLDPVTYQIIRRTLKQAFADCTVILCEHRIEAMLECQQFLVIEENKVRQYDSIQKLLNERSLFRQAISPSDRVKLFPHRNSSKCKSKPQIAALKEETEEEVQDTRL",
  "assay": "CFTR-YFP High Throughput Assay (YFP flux assay, FRT cells)",
  "format": "cell-based",
  "settings": "FRT cells expressing human F508del CFTR and YFP",
  "method": "This protocol is designed to selectively screen small molecule compounds for F508del CFTR corrector activities in the YFP (yellow fluorescent protein) flux assay. In this protocol, the cells are incubated with testing compounds for 24 hours, washed with PBS, stimulated with forskolin and a standard potentiator, and fluorescence in each plate well is measured kinetically read on a 384-well plate reader, such as the Hamamatsu FDSS-6000.\nYFP fluorescence intensity values are acquired at high speed before and after iodide buffer is injected to the assay cells. Iodide enters the cells via active CFTR channels in the plasma membrane, and quenches the YFP fluorescence. The rate of fluorescence quenching is proportionate to the total CFTR activity in the cell membrane. F508del CFTR correctors increase the number of CFTR molecules in the testing cell plasma membrane, and thereby accelerate YFP quenching.\nThis method was initially developed for bench top plate readers (Galietta, J, Jayaraman, S and Verkman, A S. Cell-based assay for high-throughput quantitative screening of CFTR chloride transport agonists. Am. J. Physiol. Cell Physiol. (2001), 281: C173), and was adapted to the HTS format (Sui J, Cotard S, Andersen J, Zhu P, Staunton J, Lee M, Lin S. Optimization of a Yellow fluorescent protein-based iodide influx high-throughput screening assay for cystic fibrosis transmembrane conductance regulator (CFTR) modulators. Assay Drug Dev Technol. (2010), 8: 656-668).\nFisher Rat Thyroid (FRT) cells stably expressing both human F508del CFTR and a halide-sensitive yellow fluorescent protein (YFP-H148Q/I152L 25,22) (Galietta et al. Am. J. Physiol Cell Physiol 281(5), C1734, 2001) were cultured on plastic surface in Coon's modified Ham's F12 medium supplemented with FBS 10%, L-glutamine 2 mM, penicillin 100 U/ml, and streptomycin […]. G418 (0.75-1.0 mg/ml) and zeocin (3.2 ug/ml) were used for selection of FRT cells expressing F508del CFTR and YFP. For primary screening, FRT cells were plated into 384-well black wall, transparent bottom microtiter plates (Costar; Corning Inc.) at a cell density of 20,000-40,000 per well. Test compound was applied to the cells at varying concentrations ranging from 2 nM-40 μM in either a 2-fold or 3-fold dilution series. Cells were incubated in a cell culture incubator at 37° C. with 5% CO2 for 24-26 h. Assay plates were washed with DPBS media (Thermo, cat# SH30028.02) to remove unbound cells and compound. Stimulation media (25 μL) containing 20 μM Forskolin & 30 μM P3 [6-(Ethyl-phenyl-sulfonyl)-4-oxo-1,4-dihydro-quinoline-3-carboxylic acid 2-methoxy-benzylamide] in Hams F-12 coon's modified media was added to the plate wells and incubated at room temperature for 60-120 min. 25 μL of HEPES-PBS-I buffer (10 mM HEPES, 1 mM MgCl2, 3 mM KCl, 1 mM CaCl2, 150 mM NaI) was then added and fluorescence quench curves (Excitation 500 nm/Emission 540 nm; exposure 136 ms) were immediately recorded on an FDSS-6000 plate reader (Hamamatsu). Quench rates were derived from least squares fitting of the data as described by Sui et al (2010).\nThis protocol is designed to selectively screen small molecule compounds for F508del CFTR potentiator activities in the YFP (yellow fluorescent protein) flux assay. Such compounds act acutely to stimulate CFTR already expressed on the membrane surface. In this protocol, the cells are incubated at 27° C. for 24 hours to homogeneously boost F508del CFTR expression in the cell membrane (low temperature correction), washed with PBS, treated with test compound, and CFTR activity is stimulated with forskolin for 1-2 hr. Measurement of ion flux is initiated by addition of iodide-containing buffer, and YFP quenching is kinetically recorded using a 384-well plate reader, such as the Hamamatsu FDSS-6000.\nYFP fluorescence intensity values are acquired at high speed over a 1 min time course before and after iodide buffer is injected to the assay cells. […]",
  "data": [
    {"smiles": "COc1cc2c(=O)n(CC(=O)N(C)c3ccc4nc(C)oc4c3)nc(-c3cccc(F)c3)c2cc1Cl", "note": "[Example 10, 2-(6-chloro-4-(3-fluorophenyl)-7-methoxy-1-oxophthalazin-2(1H)-yl)-N-methyl-N-(2-methylbenzo[d]oxazol-6-yl)acetamide]", "values": [
      {"measurement": "EC50", "result": "< 10", "unit": "µM"}
    ]},
    {"smiles": "COc1ccc2c(-c3cccc(F)c3)nn(CC(=O)N(c3ccc4nc(C)oc4c3)C3CC3)c(=O)c2c1", "note": "[Example 12, N-cyclopropyl-2-(4-(3-fluorophenyl)-7-methoxy-1-oxophthalazin-2(1H)-yl)-N-(2-methylbenzo[d]oxazol-6-yl)acetamide]", "values": [
      {"measurement": "EC50", "result": "< 10", "unit": "µM"}
    ]},
    {"smiles": "CCN(C(=O)Cn1nc(-c2cccc(F)c2)c2ccc(OC)cc2c1=O)c1ccc2nc(C)oc2c1", "note": "[Example 8, N-ethyl-2-(4-(3-fluorophenyl)-7-methoxy-1-oxophthalazin-2(1H)-yl)-N-(2-methylbenzo[d]oxazol-6-yl)acetamide]", "values": [
      {"measurement": "EC50", "result": "< 10", "unit": "µM"}
    ]},
    {"smiles": "CCN(C(=O)Cn1nc(-c2cccc(Cl)c2)c2ccc(OC)cc2c1=O)c1ccc2nc(C)oc2c1", "note": "[Example 9, 2-(4-(3-chlorophenyl)-7-methoxy-1-oxophthalazin-2(1H)-yl)-N-ethyl-N-(2-methylbenzo[d]oxazol-6-yl)acetamide]", "values": [
      {"measurement": "EC50", "result": "< 10", "unit": "µM"}
    ]},
    {"smiles": "Cc1nc2ccc(N(C)C(=O)Cn3nc(-c4cccc(F)c4)c4ccc(O)cc4c3=O)cc2o1", "note": "[Example 13, 2-(4-(3-fluorophenyl)-7-hydroxy-1-oxophthalazin-2(1H)-yl)-N-methyl-N-(2-methylbenzo[d]oxazol-6-yl)acetamide]", "values": [
      {"measurement": "EC50", "result": "< 10", "unit": "µM"}
    ]},
    {"smiles": "[2H]C([2H])(C)N(C(=O)Cn1nc(-c2cccc(Cl)c2)c2ccc(OC)cc2c1=O)c1ccc2nc(C)oc2c1", "note": "[Example 7, 2-(4-(3-chlorophenyl)-7-methoxy-1-oxophthalazin-2(1H)-yl)-N-(ethyl-1,1-d2)-N-(2-methylbenzo[d]oxazol-6-yl)acetamide]", "values": [
      {"measurement": "EC50", "result": "< 10", "unit": "µM"}
    ]}
  ]
}
